US9393181B2, “Dental materials with improved hydrolysis stability based on phthalic acid monomers” (Ivoclar Vivadent AG, priority 2011, dated 2016)

Key:
[1] = Hydrolysis stability of AAUPA in acidic solution, followed by 1H-NMR; assay type: physicochemical; settings: 5% AAUPA, 200 ppm BHT, 5% phosphoric acid d3, 10% D2O, 80% DMSO-d6; stored at 37° C., standing time 12 weeks
Description: A solution of 5% of the phthalic acid acrylamide AAUPA stabilized with 200 ppm 2,6-di-t-butyl-4-methylphenol, 5% phosphoric acid d3, 10% D2O and 80% DMSO-d6 was prepared, was stored at 37° C. and examined spectroscopically with ^1H-NMR. After a standing time of 12 weeks, no changes were able to be established in the ^1H-NMR spectrum.

Solubility in solvents = assay type: physicochemical; settings: e.g. in ethanol or acetone
Description: Furthermore compositions which contain water as solvent (f) are preferred. The solubility of the phthalic acid derivatives of the Formula (I) in polar solvents is good.
4-hydroxyphthalic anhydride (6.70 g; 40.8 mmol), BHT (10 mg) and N-(11-bromoundecyl)-N-methyl acrylamide (13.00 g; 40.8 mmol) were dissolved in N,N-dimethylformamide (100 ml). Potassium carbonate (5.64 g; 40.8 mmol) was added. The yellow suspension was stirred at RT. Water (200 ml) was added to the reaction mixture after 20 d and the whole stirred for 1 h at RT. An oily white solid precipitated from the initially cloudy solution. The solvent was decanted off. The residue was dissolved in dilute aqueous Na2CO3 solution (5%; 100 ml). The milky/cloudy aqueous phase was washed with MtBE (5×100 ml). Diluted hydrochloric acid (2N, 100 ml) was added to the water phase (pH=1) and extraction with MtBE (8×100 ml) took place. The combined extracts were dried over Na2SO4, filtered and concentrated on the rotary evaporator. Chloroform (150 ml) was added to the residue and the whole stirred at RT. After 20 h the suspension was filtered. The filtration residue was washed with chloroform (50 ml) and discarded. The filtrate was concentrated on the rotary evaporator. The residue was dissolved in chloroform (50 ml). Acetonitrile (50 ml) was added. After 72 h storage at −18° C. the solvent was decanted off and the residue dried under a fine vacuum.

[2] = in aqueous solutions; cited from earlier work

SMILES	changes in the 1H-NMR spectrum (hydrolysis stability) [1]	solubility (Solubility in solvents)	hydrolysis to 4-MET [2]
C=CC(=O)N(C)CCCCCCCCCCCOc1ccc(C(=O)O)c(C(=O)O)c1 [AAUPA, 4-[11-(acryloyl-methyl-amino)-undecyloxy]phthalic acid]	no changes	dissolves very well	
C=C(C)C(=O)OCCOC(=O)c1ccc2c(c1)C(=O)OC2=O [Example 4-META]			very quickly hydrolyzed
